US20220275376A1, “TARGETING SLC38A2 IN PANCREATIC CANCER” (New York University, priority 2019, published 2022)

How the values were obtained:
[1] = tested on: HY19636 cells; experiment: Intracellular amino acid levels in SLC38A2-deficient HY19636 cells after alanine supplementation; format: cell-based, mouse; conditions: SLC38A2-deficient (sgSlc38a2 #1) HY19636 cells, 1 mM, 24 hours
Method: (A) Serine, glycine, proline, and glutamate extracellular fluxes in SLC38A2-deficient (sgSLC38A2 #1, #3) and control (sgTom) HY19636, MiaPaCa2, and PANC1 cells cultured in DMEM. Extracellular accumulation (+, secretion) or depletion (−, uptake) was measured in conditioned media over 24 hours and normalized to the viable cell density over the time course. Error bars depict s.d. of three independent experiments. (B) Essential amino acid (leucine, isoleucine, valine, threonine) uptake fluxes in SLC38A2-deficient (sgSLC38A2 #1, #3) and control (sgTom) HY19636, MiaPaCa2, and PANC1 cells cultured in DMEM for 24 hours. Error bars depict s.d. of three independent experiments. […] Data presented as a percent change for each amino acid relative to that measured in DMEM conditions. […]
For ^13C- and ^15N-labeled alanine tracing experiments, cells were plated into 6-well plates at 250,000 cells/well and allowed to attach overnight. […] Fatty acid labeling from ^13C3-alanine was measured by transferring 400 μL of the inorganic layer to a glass vial and evaporating under nitrogen flow in a needle evaporator prior to transesterification and GC-MS analysis. To quantify contribution to proteogenic amino acid pools, the insoluble interphase layer containing proteins was washed three times with HPLC-grade acetone and allowed to dry overnight with gentle nitrogen flow in a needle evaporator. […]

[2] = tested on: 8988T cells; experiment: Alanine uptake from culture media conditioned by 8988T cells; format: cell-based; conditions: 10 μM, vs vehicle (DMSO), up to 96 hours
Method: (A) Alanine levels in culture media conditioned by 8988T cells treated with vehicle (DMSO) or fluvoxamine (FVX, 10 μM) over time. (B) Alanine uptake flux by 8988T cells treated with vehicle (DMSO) or fluvoxamine (FVX, 10 μM) for 96 hours. Data were normalized to cell growth over the treatment period. (C) Glutamine levels in culture media conditioned by 8988T cells treated with vehicle (DMSO) or fluvoxamine (FVX, 10 μM) over time. (D) Absolute values for amino acid uptake or secretion flux by 8988T cells treated with vehicle (DMSO) or fluvoxamine (FVX, 10 μM) for 96 hours. Data were normalized to cell growth over the treatment period.
Fluvoxamine (FVX), fluoxetine (FLX), paroxetine (PXT), sertindole (SND), and blonanserin (BNS) were acquired from Cayman Chemicals. Desipramine (DPM), α-(Methylamino) isobutyric acid (MeAIB), and L-alanine were acquired from Sigma. Stocks were prepared at 10 mM or 7.5 mM (BNS) in DMSO. Cells were treated with vehicle (DMSO) or varying concentrations of drug for indicated time. Conditioned media was collected and centrifuged at 1,000×g to remove cell debris followed by extraction of metabolites. For metabolite extraction, cells were first washed with ice cold 0.9% NaCl to remove media contamination followed by addition of 500 μL methanol (−20° C.) and 200 μL HPLC grade water (4° C.). […]

[3] = molecular target: T1, SLC38A2 (Homo sapiens, UniProt Q96QD8); experiment: SLC38A2 activity measured by MeAIB uptake in HY15549 dox-inducible SNAT2 cells; format: cell-based; conditions: 20 μm compound, MeAIB 0.3 mM, 1 hour, vs vehicle (PBS), HY15549 cells expressing dox-inducible SLC38A2/SNAT2
T1 construct: expressed in transfected cells; host or cells: HY15549 cells with dox-inducible SNAT2
T1 sequence (Q96QD8 1-506): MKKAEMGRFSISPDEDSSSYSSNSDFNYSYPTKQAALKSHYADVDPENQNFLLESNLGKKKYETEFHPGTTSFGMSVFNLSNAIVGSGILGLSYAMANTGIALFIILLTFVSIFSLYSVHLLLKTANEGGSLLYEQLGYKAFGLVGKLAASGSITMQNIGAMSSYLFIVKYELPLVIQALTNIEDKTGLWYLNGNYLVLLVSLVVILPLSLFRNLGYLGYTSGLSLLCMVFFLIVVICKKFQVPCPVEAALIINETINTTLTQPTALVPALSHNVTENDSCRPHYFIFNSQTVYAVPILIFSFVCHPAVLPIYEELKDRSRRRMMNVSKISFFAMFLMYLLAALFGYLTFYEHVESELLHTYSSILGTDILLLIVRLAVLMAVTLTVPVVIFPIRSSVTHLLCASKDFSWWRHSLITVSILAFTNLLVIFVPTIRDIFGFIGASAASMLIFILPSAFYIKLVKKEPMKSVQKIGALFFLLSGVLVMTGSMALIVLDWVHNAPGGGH
Method: (A) Schematic depicting SLC38A2-dependent update of alanine structural analog, methyl α-aminoisobutyrate (MeAIB). […] (B) Total ion chromatogram (TIC) of HY15549 dox-inducible SNAT2 cells treated with 1 mM MeAIB for 24 hours compared to vehicle (PBS). […] HY15549 dox-inducible SNAT2 cells were cultured with a concentration gradient of MeAIB for 15 minutes (gray circles) or 60 minutes (black squares). (D) Western blot depicting SLC38A2 expression relative to doxycycline after 24 hours culture in HY15549 dox-inducible SNAT2 cells. (E) Intracellular MeAIB levels in HY15549 dox-inducible cells cultured with dox (+SNAT2, left bar) and without dox (KO, right bar) for 24 hours with 1 mM MeAIB. (F) Intracellular MeAIB levels in HY15549 dox-inducible cells cultured with vehicle, paroxetine (PXT, 20 μM), or sertraline (SRT, 20 μm) for 24 hours with 300 μM MeAIB.

| inhibition of MeAIB uptake (intracellular MeAIB levels) [3] | Structure (SMILES) | rescue of amino acid defect (change in intracellular amino acids relative to DMEM) [1] | alanine uptake in PDAC cells [2] |
| --- | --- | --- | --- |
| – | C[C@H](N)C(=O)OC(C)(C)C [L-alanine tert-butyl ester] | failed to rescue amino acid defect | – |
| – | C[C@H](N)C(=O)O [L-alanine] | failed to rescue amino acid defect | – |
| inhibited | COCCCC/C(=N\OCCN)c1ccc(C(F)(F)F)cc1 [fluvoxamine] | – | significantly and specifically inhibits alanine uptake |
